Results reported in patent US9283176B2, “Benzimidazole anthelmintic compositions” (Zoetis Services LLC, priority 2008, dated 2016).

Legend:
[1] = Stability studies: total moxidectin and triclabendazole levels after storage; type: physicochemical; details: in Composition F, 25° C. or 40° C.; for Stability of the active during storage (in words): entire 6 month storage period
Description: Stability studies were conducted to ensure that a composition according to the present invention was stable. Composition F of Example 3 was prepared according to the process described in Example 1 and stored at either ambient (25° C.) or 40° C. for a total period of 6 months. At the conclusion of each storage period shown in Table V below, samples were tested for total moxidectin and triclabendazole levels.

[2] = Triclabendazole solubility in various lactone solvents; type: physicochemical
Description: Still further embodiments of anthelmintic compositions representative of the present invention are prepared according to the process described in Example 1 above, except that lactone solvents other than γ-hexalactone are employed. In particular, the compositions are prepared with one of the following lactone solvents: butyrolactone, δ-hexalactone, γ-dodecalactone, δ-nonalactone, δ-decalactone, γ-decalactone, and δ-dodecalactone.

Stability of the active during storage (in words) [1] | Physical state of the active during storage (in words) ([1]; up to 6 months) | Solvency in lactone solvents (in words) ([2]; lactone solvents of Table VIII and similar lactones and combinations) | Triclabendazole Solubility (% w/w) ([2]; solvent γ-butyrolactone) | Triclabendazole Solubility (% w/w) ([2]; solvent γ-decalactone) | Triclabendazole Solubility (% w/w) ([2]; solvent γ-dodecalactone) | Triclabendazole Solubility (% w/w) ([2]; solvent γ-hexalactone) | Triclabendazole Solubility (% w/w) ([2]; solvent γ-nonalactone) | Triclabendazole Solubility (% w/w) ([2]; solvent δ-decalactone) | Triclabendazole Solubility (% w/w) ([2]; solvent δ-dodecalactone) | SMILES
remained stable and active | remained in solution | surprisingly good solvency | >18.0 % w/w | 15.2 % w/w | 11.8 % w/w | 16.8 % w/w | 16.7 % w/w | 28.1 % w/w | 21.5 % w/w | CSc1nc2cc(Cl)c(Oc3cccc(Cl)c3Cl)cc2[nH]1 [Triclabendazole, 5-chloro-6(2,3-dichlorophenoxy)-2-methylthio-1H-benzimidazole]
remained stable and active |  |  |  |  |  |  |  |  |  | CO/N=C1\C[C@]2(C[C@@H]3C[C@@H](C/C=C(\C)C[C@@H](C)/C=C/C=C4\CO[C@@H]5[C@H](O)C(C)=C[C@@H](C(=O)O3)[C@]45O)O2)O[C@H](/C(C)=C/C(C)C)[C@H]1C [Moxidectin]
